How the values were obtained:
[1] = system: HCT-116, MDA-MB-231, HeLa, and MCF-7; assay: MTT cytotoxicity assay, ranges stated over several cell lines; format: cell-based; conditions: Homo sapiens, HCT-116, MDA-MB-231, HeLa, MCF-7; range; read-out: IC50 values, range over the cancer cell lines tested
Description: (§1) Subsequently, 100 µL of dimethyl sulfoxide was introduced to dissolve the insoluble formazan.

MCF-7 [2] = assay: MTT cytotoxicity assay, MCF-7; format: cell-based, human; conditions: 24 h treatment, mean ± SD of triplicate
Description: as §1

MDA-MB-231 = assay: MTT cytotoxicity assay, MDA-MB-231; format: cell-based; conditions: Homo sapiens, 24 h treatment, mean ± SD of triplicate
Description: as §1

HCT-116 = assay: MTT cytotoxicity assay, HCT-116; format: cell-based; conditions: Homo sapiens, 24 h treatment, mean ± SD of triplicate
Description: as §1

HeLa = assay: MTT cytotoxicity assay, HeLa; format: cell-based; conditions: Homo sapiens, 24 h treatment, mean ± SD of triplicate
Description: as §1

[3] = MTT cytotoxicity assay, normal cell line WI-38; format: cell-based, human; conditions: human, WI-38 cells (normal human lung fibroblasts), normal (non-cancer) cell line, 24 h treatment
Description: as §1

MCF-7a = assay: In vitro anti-estrogenic activity assay, MCF-7a
MCF-7 [4] = assay: In vitro anti-estrogenic activity assay, MCF-7
[5] = cell count relative to the control (17β-E2)

SMILES | IC50 [1] | IC50 (MCF-7 [2]; Homo sapiens, MCF7, 24 h) | IC50 (MDA-MB-231) | IC50 (HCT-116) | IC50 (HeLa) | IC50 at 24 h [3] | IC50 (MCF-7 [2]) | Cell Proliferation MCF-7a % (MCF-7a; [5]) | Cell Proliferation MCF-7a Cell Count (MCF-7a; mean ± SD of triplicate) | Cell Proliferation MCF-7 % (MCF-7 [4]; [5]) | Cell Proliferation MCF-7 Cell Count (MCF-7 [4]; mean ± SD of triplicate)
CCOc1ccc(/C=C/C(=O)c2ccccc2)cc1 [Compound 4f, (E)-3-(4-Ethoxyphenyl)-1-phenylprop-2-en-1-one] | 23.5 to 74.5 µM | 35.3 ± 2.1 µM | 46.1 ± 2.4 µM | 57.6 ± 3.3 µM | 49.6 ± 2.8 µM | 64.7 ± 3.6 µM | – | – | – | – | –
O=C(/C=C/c1ccccc1OCc1ccccc1)c1ccccc1 [Compound 4g, (E)-3-(2-(Benzyloxy)phenyl)-1-phenylprop-2-en-1-one] | 23.5 to 74.5 µM | 48.4 ± 2.6 µM | 59.2 ± 3.5 µM | 54 ± 3 µM | 36.5 ± 2.4 µM | 27.8 ± 1.9 µM | – | – | – | – | –
O=C(/C=C/c1cccc(OCc2ccccc2)c1)c1ccccc1 [Compound 4h, (E)-3-(3-(Benzyloxy)phenyl)-1-phenylprop-2-en-1-one] | 23.5 to 74.5 µM | 42.1 ± 2.4 µM | 53.8 ± 3.3 µM | 46.8 ± 2.7 µM | 25.6 ± 1.8 µM | 83.4 ± 4.2 µM | – | – | – | – | –
O=C(/C=C/c1ccc(OCc2ccccc2)cc1)c1ccccc1 [Compound 4i, (E)-3-(4-(Benzyloxy)phenyl)-1-phenylprop-2-en-1-one] | – | > 100 µM | > 100 µM | > 100 µM | > 100 µM | > 100 µM | 85.5 ± 4.3 µM | – | – | – | –
COc1cccc(C(=O)/C=C/c2ccccc2)c1 [Compound 4j, (E)-1-(3-Methoxyphenyl)-3-phenylprop-2-en-1-one] | – | 18.8 ± 1.5 µM | 29.3 ± 1.9 µM | 24.6 ± 1.7 µM | 34.9 ± 2.2 µM | 78.2 ± 3.9 µM | – | – | – | – | –
COc1cccc(C(=O)/C=C/c2ccc(Cl)cc2)c1 [Compound 4k, (E)-3-(4-Chlorophenyl)-1-(3-methoxyphenyl)prop-2-en-1-one] | – | > 100 µM | > 100 µM | > 100 µM | > 100 µM | > 100 µM | – | – | – | – | –
COc1ccc(/C=C/C(=O)c2cccc(OC)c2)cc1 [Compound 4l, (E)-1-(3-Methoxyphenyl)-3-(4-methoxyphenyl) prop-2-en-1-one] | 61.9 to 91.7 µM | 75.4 ± 3.8 µM | 91.7 ± 4.5 µM | 84 ± 4.2 µM | 88.8 ± 4.6 µM | 16.2 ± 1.3 µM | – | – | – | – | –
COc1ccc(C(=O)/C=C/c2ccccc2)cc1 [Compound 4m, (E)-1-(4-Methoxyphenyl)-3-phenylprop-2-en-1-one] | 23.5 to 74.5 µM | 33 ± 2 µM | 45.9 ± 2.6 µM | 59.6 ± 3.5 µM | 63.6 ± 3.7 µM | 87.6 ± 4.6 µM | – | – | – | – | –
COc1ccc(C(=O)/C=C/c2ccc(Cl)cc2)cc1 [Compound 4n, (E)-3-(4-Chlorophenyl)-1-(4-methoxyphenyl)prop-2-en-1-one] | 23.5 to 74.5 µM | 37 ± 2.3 µM | 48.6 ± 2.8 µM | 66.1 ± 3.8 µM | 74.5 ± 3.9 µM | 61.5 ± 3.4 µM | – | – | – | – | –
COc1ccc(/C=C/C(=O)c2ccc(OC)cc2)cc1 [Compound 4o, (E)-1,3-bis(4-Methoxyphenyl)prop-2-en-1-one] | 61.9 to 91.7 µM | 61.9 ± 3.4 µM | 73.5 ± 4 µM | 89.2 ± 4.5 µM | > 100 µM | 24.2 ± 1.7 µM | – | – | – | – | –
COc1cccc(C(=O)/C=C/c2cccc(OCc3ccccc3)c2)c1 [Compound 4p, (E)-3-(3-(Benzyloxy)phenyl)-1-(3-methoxyphenyl)prop-2-en-1-one] | 23.5 to 74.5 µM | 57.1 ± 3.2 µM | 68.4 ± 3.7 µM | 39.8 ± 2.4 µM | 45.2 ± 2.4 µM | 92.1 ± 4.9 µM | – | – | – | – | –
COc1ccc(C(=O)/C=C/c2cccc(OCc3ccccc3)c2)cc1 [Compound 4r, (E)-3-(3-(Benzyloxy)phenyl)-1-(4-methoxyphenyl)prop-2-en-1-one] | 23.5 to 74.5 µM | 39.3 ± 2.4 µM | 51.8 ± 2.9 µM | 62.6 ± 3.7 µM | 57 ± 3.2 µM | > 100 µM | – | – | – | – | –
COc1ccc(C(=O)/C=C/c2ccc(OCc3ccccc3)cc2)cc1 [Compound 4s, (E)-3-(4-(Benzyloxy)phenyl)-1-(4-methoxyphenyl)prop-2-en-1-one] | 61.9 to 91.7 µM | 64.2 ± 3.5 µM | 82.4 ± 4.1 µM | 73.5 ± 3.9 µM | 87 ± 4.3 µM | 22.3 ± 1.6 µM | – | – | – | – | –
C[C@]12CC[C@@H]3c4ccc(O)cc4CC[C@H]3[C@@H]1CC[C@@H]2O [Compound 17β-E2, 17β estradiol, reference compound] | – | – | – | – | – | – | – | 100% | 20,776 ± 600 | 100% | 18,524 ± 659
